Assay results published in patent publication US10400263B2, “Tripeptide rhodamine compound” (Kingston Uninversity Higher Education Corporation, priority 2012, dated 2019).
Residues, ends and D or L forms follow the SMILES beside them. *: point of attachment. AMC = Cc1cc(=O)oc2cc(N*)ccc12; Boc = CC(C)(C)OC(=O)*

How the values were obtained:
MRSA and MSSA [1] = conditions: post-culture (10^6-10^8 bacteria); cited from earlier work
[2] = test system: MRSA, MSSA, S. epidermidis and E. coli; assay: Coumarin assay, absorbance at 385 nm, all bacterial types; format: cell-based; conditions: 100 μM coumarin, FIG. 15
Method: To compare the efficacy of this staphylocoagulase assay with current, well established “gold standard” methods of coagulase detection such as a coumarin assay, coagulase test and latex agglutination test, bacterial isolates were prepared in suspension as above and clinical isolates of each respective strain was cultured overnight on nutrient agar. 90 μl of bacterial suspension was added to a solution consisting of 100 μM solutions of N-t-BOC-val-pro-arg-7-amido-4-methylcoumarin prepared in 1×PBS with the addition of 0.05 M Tris Buffer and 0.1 M NaCl to maintain a pH of 8.5. Staphylocoagulase activity was determined by measuring the absorbance at 385 nm at 15 minute intervals over a 6 hour time period. It should be noted that a concentration of 795 μM of the coumarin dye is usually required post-culture (10^6-10^8 bacteria) in order to observe a significant chromogenic response.

[3] = test system: MRSA, MSSA, S. epidermidis and E. coli; assay: Coumarin staphylocoagulase fluorescence assay, all four bacterial species; format: cell-based; conditions: 500 μM coumarin, FIG. 10
Method: (§1) As described for the LGX system, clinical isolates of Methicillin Resistant Staphylococcus Aureus (MRSA), Methicillin Sensitive Staphylococcus Aureus (MSSA), Staphylococcus Epidermidis and Eschericia coli were cultured on nutrient agar prior to being grown overnight in nutrient broth under shaking conditions at 37° C. To determine the effects of varying bacterial concentrations with respect to bacterial strains and N-t-BOC-val-pro-arg-7-amido-4-methylcoumarin concentrations on staphylocoagulase activity, a direct comparison between the LGX system and the existing use of N-t-BOC-val-pro-arg-7-amido-4-methylcoumarin as a means of detecting staphylocoagulase was necessary (Ford et al, 1999).
(§2) 100 μM and 500 μM solutions of coumarin solution were prepared in 1×PBS with the addition of 0.05 M Tris Buffer and 0.1 M NaCl to maintain a pH of 8.5 using N-t-BOC-val-pro-arg-7-amido-4-methylcoumarin dissolved in MeOH. Furthermore, 100 μM and 500 μM of human prothrombin was added to the solution. 90 μl of […] of N-t-BOC-val-pro-arg-7-amido-4-methylcoumarin solution was added to varying concentrations of bacteria (10^6, 10^5, 10^4, 10^3, 10^2 and 10^0, respectively) in a microliter plate and staphylocoagulase activity determined by fluorescence spectrophotometry (Excitation of 355 nm, Emmission of 460 nm) at 15 minute intervals over a 6 hour time period. […]

MRSA and MSSA [4] = assay: Coumarin staphylocoagulase assay, MRSA and MSSA; format: cell-based, Staphylococcus aureus; conditions: 100 μM coumarin; MRSA and MSSA 10^6 and 10^5; FIG. 11
Method: as §1, §2

MSSA = assay: Coumarin staphylocoagulase fluorescence assay, MSSA; format: cell-based, Staphylococcus aureus; conditions: 500 μM coumarin; MSSA 10^6; FIG. 10
Method: as §1, §2

bacterial viability = assay: Effect of methanol on bacterial viability (colony count); format: cell-based; conditions: 2 hours incubation, all bacteria concentrations (10^2-10^6), plated on nutrient agar overnight
Method: Tests were also run to validate that the methanol had no adverse effects on the growth of a number of bacterial strains up to a ˜5% methanol solution. Varying concentrations of methanol (0.25%, 0.5%, 1%, 2.5 5, 4% and 5%) were incubated with each bacterial species also at varying concentrations (10^2-10^6) for 2 hours prior to plating on nutrient agar to assess the effects of the solvent on bacterial viability.

SMILES	concentration usually required to observe a significant chromogenic response (MRSA and MSSA [1]) [µM]	absorbance over the 6 hour time period ([2]; 10^5, 10^4, 10^3 and 10^2)	absorbance over the 6 hour time period ([2]; 10^6 of all bacterial types)	discrimination between bacterial species by fluorescence ([3]; all bacterial species 10^6)	fluorescence over the 6 hour time period ([3]; high and low concentrations of MRSA, MSSA, S. epidermidis and E. coli)	discrimination between bacterial samples by fluorescence (MRSA and MSSA [4])	fluorescence (MSSA)	methanol concentration up to which bacterial viability was not compromised (bacterial viability)
Cc1cc(=O)oc2cc(NC(=O)[C@H](CCCNC(=N)N)NC(=O)[C@@H]3CCCN3C(=O)[C@@H](NC(=O)OC(C)(C)C)C(C)C)ccc12 [N-t-BOC-val-pro-arg-7-amido-4-methylcoumarin] (Boc-Val-Pro-Arg-{AMC})	795	no increase or variance between bacterial strains	little increase over the 6 hour time period	little discrimination between the fluorescence of all samples	no increase in fluorescence was observed	no discrimination between bacterial samples	a slight increase was observed	–
CO [methanol]	–	–	–	–	–	–	–	up to 4%
